Results on eleven compounds are retold here after patent US6482951B2 (Hoffmann-La Roche Inc., priority 2000, dated 2002).

The test system of experiment [1] is C57BL/6J mice. The experiment can be described thus: Glucokinase activator in vivo screen (blood glucose after oral dosing). To be noted: oral gavage 50 mg/kg, blood glucose at 0, 1, 2, 4, 6 h, active = significant (p ≦0.05) decrease for two consecutive time points. The protocol:
Glucokinase Activator in vivo Screen Protocol: C57BL/6J mice are orally dosed via gavage with Glucokinase (GK) activator at 50 mg/kg body weight following a two hour fasting period. Blood glucose determinations are made five times during the six hour post-dose study period.
Mice (n=6) are weighed and fasted for a two hour period prior to oral treatment. GK activators are formulated at 6.76 mg/ml in Gelucire vehicle (Ethanol:Gelucire44/14:PEG400q.s. 4:66:30 v/w/v. Mice are dosed orally with 7.5 μl formulation per gram of body weight to equal to a 50 mg/kg dose. Immediately prior to dosing, a pre dose (time zero) blood glucose reading is acquired by snipping off a small portion of the animals tail (˜1 mm) and collecting 15 μl blood into a heparinized capillary tube for analysis. Following GK activator administration, additional blood glucose reading are takenat 1, 2, 4 and 6 hours post dose from the same tail wound. Results are interpreted by comparing the mean blood glucose values of six vehicle treated mice with six GK activator treated mice over the six hour study duration. Compounds are considered active when they exibit a statistically significant (p ≦0.05) decrease in blood glucose compared to vehicle for two consecutive assay time points.

The target of experiment [2] is T1, Human liver GK1 (GST-GK) (Homo sapiens, UniProt P35557).
T1 construct: made in house; host or cells: E. coli
T1 sequence (P35557 1-466 isoform P35557-2): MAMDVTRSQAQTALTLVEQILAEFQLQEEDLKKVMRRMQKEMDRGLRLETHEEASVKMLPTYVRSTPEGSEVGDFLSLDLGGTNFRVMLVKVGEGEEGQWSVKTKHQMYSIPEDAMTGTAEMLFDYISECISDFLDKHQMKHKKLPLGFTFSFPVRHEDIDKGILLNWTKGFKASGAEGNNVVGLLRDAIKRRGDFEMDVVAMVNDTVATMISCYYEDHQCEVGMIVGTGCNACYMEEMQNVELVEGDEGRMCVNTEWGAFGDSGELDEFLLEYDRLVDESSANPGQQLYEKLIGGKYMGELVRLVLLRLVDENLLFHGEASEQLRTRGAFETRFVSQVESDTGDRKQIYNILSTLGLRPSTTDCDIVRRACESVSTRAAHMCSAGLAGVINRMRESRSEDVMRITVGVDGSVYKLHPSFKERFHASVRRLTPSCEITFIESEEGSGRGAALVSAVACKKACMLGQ
The experiment can be described thus: In vitro glucokinase activity assay (G6PDH-coupled, NADH, OD 340 nm). The experiment is classed as biochemical. To be noted: 25° C., 5 mM D-glucose, 1 mM ATP, 10% DMSO, recombinant GST-GK. The method, then:
Glucokinase Assay: Glucokinase (GK) was assayed by coupling the production of glucose-6-phosphate to the generation of NADH with glucose-6-phosphate dehydrogenase (G6PDH, 0.75-1 kunits/mg; Boehringer Mannheim, Indianapolis, Ind.) from Leuconostoc mesenteroides as the coupling enzyme (Scheme 2). Recombinant
Human liver GK1 was expressed in E. coli as a glutathione S-transferase fusion protein (GST-GK) [Liang et al, 1995] and was purified by chromatography over a glutathione-Sepharose 4B affinity column using the procedure provided by the manufacturer (Amersham Pharmacia Biotech, Piscataway, N.J.).
The assay was conducted at 25° C. in a flat bottom 96-well tissue culture plate from Costar (Cambridge, Mass.) with a final incubation volume of 120 μl. The incubation mixture contained: 25 mM Hepes buffer (pH, 7.1), 25 mM KCl, 5 mM D-glucose, 1 mM ATP, 1.8 mM NAD, 2 mM MgCl2, 1 μM sorbitol-6-phosphate, 1 mM dithiothreitol, test drug or 10% DMSO, 1.8 unit/ml G6PDH, and GK (see below). […]
After addition of enzyme, the increase in optical density (OD) at 340 nm was monitored over a 10 minute incubation period as a measure of GK activity. […] The GK activity in control wells was compared with the activity in wells containing test GK activators, and the concentration of activator that produced a 50% increase in the activity of GK, i.e., the SC1.5, was calculated.

Turning to `O=C(Nc1ncc(Cl)s1)C(CC1CCCC1)N1Cc2ccccc2C1=O` (centres unmarked) [Example 18, N-(5-Chloro-thiazol-2-yl)-3-cyclopentyl-2-(1-oxo-1,3-dihydro-isoindol-2-yl)-propionamide], the “glucokinase activator in vivo activity (decrease in blood glucose compared to vehicle)” value in experiment [1] was “excellent glucokinase activator in vivo activity”.
In the case of `O=C(Nc1cnccn1)[C@H](CC1CCCCC1)N1Cc2c(F)cccc2C1=O` [Example 25.1], the “glucokinase activator in vivo activity (decrease in blood glucose compared to vehicle)” value in experiment [1] is on record as “excellent glucokinase activator in vivo activity”.
On the same count and under the same terms, to `O=C(Nc1ccccn1)[C@H](CC1CCCCC1)N1Cc2ccccc2C1=O` [Example 26, (S)-3-Cyclohexyl-2-(1-oxo-1,3-dihydro-isoindol-2-yl)-N-pyridin-2-yl-propionamide] belongs “excellent glucokinase activator in vivo activity”; to `O=C(Nc1nccs1)[C@H](CC1CCCCC1)N1Cc2ccccc2C1=O` [Example 1, (S)-3-cyclohexyl-2-(1-oxo-1,3-dihydro-isoindol-2-yl)-N-thiazol-2-yl-propionamide], “excellent glucokinase activator in vivo activity”.
On the same count and under the same terms, to `O=C(Nc1ccc(Cl)cn1)[C@H](CC1CCCCC1)N1Cc2ccccc2C1=O` [Example 33, (S)-3-Cyclohexyl-2-(1-oxo-1,3-dihydro-isoindol-2-yl)-N-5-chloro-pyridin-2-yl-propionamide] belongs “excellent glucokinase activator in vivo activity”; to `Cc1ccc(NC(=O)[C@H](CC2CCCCC2)N2Cc3ccccc3C2=O)nc1` [Example 31, (S)-3-Cyclohexyl-2-(1-oxo-1,3-dihydro-isoindol-2-yl)-N-5-methyl-pyridin-2-yl-propionamide], “excellent glucokinase activator in vivo activity”; to `O=C(Nc1ccncn1)[C@H](CC1CCCCC1)N1Cc2ccccc2C1=O` [Example 14, 3-Cyclohexyl-2-(1-oxo-1,3-dihydro-isoindol-2-yl)-N-pyrimidin-4-yl-propionamide], “excellent glucokinase activator in vivo activity”.
As for `O=C(Nc1nccs1)[C@@H](CC1CCCCC1)N1Cc2ccccc2C1=O` [Example 9, (R)-3-cyclohexyl-2-(1-oxo-1,3-dihydro-isoindol-2-yl)-N-thiazol-2-yl-propionamide], the “SC1.5 (concentration of activator that produced a 50% increase in the activity of GK)” value in experiment [2] was determined as 36 µM.
Turning to `O=C(Nc1nccs1)[C@H](CC1CCCCC1)N1Cc2c(F)cccc2C1=O` [Example 23.1, (S)-3-Cyclohexyl-2-(4-fluoro-1-oxo-1,3-dihydro-isoindol-2-yl)-N-thiazol-2-yl-propionamide], the “glucokinase activator in vivo activity (decrease in blood glucose compared to vehicle)” value in experiment [1] is on record as “excellent glucokinase activator in vivo activity”.
Still for that read-out and setting: to `O=C(Nc1cnccn1)[C@H](CC1CCCCC1)N1Cc2ccccc2C1=O` [Example 15, (S)-3-Cyclohexyl-2-(1-oxo-1,3-dihydro-isoindol-2-yl)-N-pyrazin-2-yl-propionamide] belongs “excellent glucokinase activator in vivo activity”; to `O=C(Nc1ccc(Br)cn1)[C@H](CC1CCCCC1)N1Cc2ccccc2C1=O` [Example 22, (S)-N-(5-Bromo-pyridin-2-yl)-3-cyclohexyl-2-(1-oxo-1,3-dihydro-isoindol-2-yl)-propionamide], “excellent glucokinase activator in vivo activity”.
